Experimental data taken from PubChem BioAssay (NCI).
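The compound was tested at five concentrations on cells cultured in 96-well plates, with a 48-hour exposure period. TGI denotes the concentration required for complete inhibition of growth.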

Tests used:
Experiment in all cases: DTP human tumour cell line panel, 48 h
[1] = tested on: M14 melanoma
[2] = tested on: CCRF-CEM leukemia
[3] = tested on: UACC-257 melanoma
[4] = tested on: HCT-15 colon
[5] = tested on: EKVX NSCLC
[6] = tested on: A498 renal
[7] = tested on: NCI-H23 lung
[8] = tested on: SNB-19 CNS
[9] = tested on: PC-3 prostate
[10] = tested on: MALME-3M melanoma
[11] = tested on: MDA-N
[12] = tested on: LOX IMVI melanoma

O=C(c1cccs1)N(C(=S)OCCOc1ccccc1)c1ccccc1
TGI [1]: 37.1 µM | TGI [2]: 59.4 µM | TGI [3]: 69.9 µM | TGI [4]: 84.7 µM | TGI [5]: 78.8 µM | TGI [6]: 50.5 µM | TGI [7]: 42.3 µM | TGI [8]: > 100 µM | TGI [9]: > 100 µM | TGI [10]: 69.9 µM | TGI [11]: 33.4 µM | TGI [12]: 33.3 µM

Cc1ccc(NC(=O)c2cc(S(=O)(=O)Nc3n[nH]c(=O)[nH]3)c(SSc3cc(Cl)c(C(=O)Nc4ccc(C)cc4)cc3S(=O)(=O)Nc3n[nH]c(=O)[nH]3)cc2Cl)cc1
TGI [1]: > 100 µM | TGI [2]: > 100 µM | TGI [3]: > 100 µM | TGI [4]: > 100 µM | TGI [5]: > 100 µM | TGI [6]: > 100 µM | TGI [7]: > 100 µM | TGI [8]: > 100 µM | TGI [9]: > 100 µM | TGI [10]: > 100 µM | TGI [11]: > 100 µM | TGI [12]: > 100 µM

CCOC(=O)C(=CNc1ccc(NC2=NCC(C)S2)cc1)C(=O)OCC (centres undefined)
TGI [1]: > 90.7 µM | TGI [2]: 1.84 µM | TGI [3]: > 100 µM | TGI [4]: > 100 µM | TGI [5]: > 100 µM | TGI [6]: > 100 µM | TGI [7]: > 100 µM | TGI [8]: > 100 µM | TGI [9]: 62.9 µM | TGI [10]: 96.2 µM | TGI [11]: > 100 µM | TGI [12]: > 85.4 µM

COC(=O)c1c(C)n([O-])c2cc(Cl)c(Cl)cc2[n+]1=O
TGI [1]: 76.6 µM | TGI [2]: 42.3 µM | TGI [3]: 54.9 µM | TGI [4]: 37.9 µM | TGI [5]: 67.7 µM | TGI [6]: 40.2 µM | TGI [7]: > 100 µM | TGI [8]: > 100 µM | TGI [9]: > 100 µM | TGI [10]: 31.1 µM | TGI [11]: > 100 µM | TGI [12]: 27.8 µM

Nc1ccc2c(c1)nc1n2C(c2c(F)cccc2F)SC1 (centres undefined)
TGI [1]: > 100 µM | TGI [2]: > 100 µM | TGI [3]: > 100 µM | TGI [4]: > 100 µM | TGI [5]: > 100 µM | TGI [6]: > 100 µM | TGI [7]: > 100 µM | TGI [8]: > 100 µM | TGI [9]: > 100 µM | TGI [10]: > 100 µM | TGI [11]: > 100 µM | TGI [12]: > 100 µM

NC(=O)C(=CNC(=S)Nc1ccccc1)C(N)=O
TGI [1]: > 100 µM | TGI [2]: > 100 µM | TGI [3]: > 100 µM | TGI [4]: > 100 µM | TGI [5]: > 100 µM | TGI [6]: > 100 µM | TGI [7]: > 100 µM | TGI [8]: > 100 µM | TGI [9]: > 100 µM | TGI [10]: > 100 µM | TGI [11]: > 100 µM | TGI [12]: > 100 µM

CC(=O)C1=CN=C2C(=O)N(c3ccccc3)N(C)C12C (centres undefined)
TGI [1]: > 100 µM | TGI [2]: > 100 µM | TGI [3]: > 100 µM | TGI [4]: > 100 µM | TGI [5]: > 100 µM | TGI [6]: > 100 µM | TGI [7]: > 100 µM | TGI [8]: > 100 µM | TGI [9]: > 100 µM | TGI [10]: > 100 µM | TGI [11]: > 100 µM | TGI [12]: > 100 µM

Oc1[nH]c2ccccc2c1N=NC(=S)Nc1ccccc1Cl
TGI [1]: 14.9 µM | TGI [2]: 49.9 µM | TGI [3]: 15.5 µM | TGI [4]: > 100 µM | TGI [5]: 77.9 µM | TGI [6]: 35.4 µM | TGI [7]: 33.5 µM | TGI [8]: > 100 µM | TGI [9]: > 100 µM | TGI [10]: 21.8 µM | TGI [11]: > 100 µM | TGI [12]: 27.4 µM

CCOC(=O)c1sc2nc(SC)nc3c2c1NCN3c1ccc2c(c1)OCO2
TGI [1]: 71.2 µM | TGI [2]: 32.9 µM | TGI [3]: > 100 µM | TGI [4]: > 100 µM | TGI [5]: > 100 µM | TGI [6]: 87.4 µM | TGI [7]: > 100 µM | TGI [8]: 31.2 µM | TGI [9]: 37.2 µM | TGI [10]: 53.2 µM | TGI [11]: > 100 µM | TGI [12]: > 100 µM

COc1ccc(OC)c(N(CN2C(=O)CCC2C(=O)O)C(C)=O)c1 (centres undefined)
TGI [1]: > 100 µM | TGI [2]: > 100 µM | TGI [3]: > 100 µM | TGI [4]: > 100 µM | TGI [5]: > 100 µM | TGI [6]: > 100 µM | TGI [7]: > 100 µM | TGI [8]: > 100 µM | TGI [9]: > 100 µM | TGI [10]: > 100 µM | TGI [11]: > 100 µM | TGI [12]: > 100 µM

COC(=O)[C@]1(NC(=O)c2ccccc2)C[C@H]1C=O
TGI [1]: > 100 µM | TGI [2]: 51.5 µM | TGI [3]: > 100 µM | TGI [4]: > 100 µM | TGI [5]: > 100 µM | TGI [6]: > 100 µM | TGI [7]: > 100 µM | TGI [8]: > 100 µM | TGI [9]: > 100 µM | TGI [10]: > 100 µM | TGI [11]: > 100 µM | TGI [12]: > 100 µM

CCOC(=O)NNC(=O)NCc1cccc(CNC(=O)NNC(=O)OCC)c1
TGI [1]: > 100 µM | TGI [2]: > 100 µM | TGI [3]: > 100 µM | TGI [4]: > 100 µM | TGI [5]: > 100 µM | TGI [6]: > 100 µM | TGI [7]: > 100 µM | TGI [8]: > 100 µM | TGI [9]: > 100 µM | TGI [10]: > 100 µM | TGI [11]: > 100 µM | TGI [12]: > 100 µM
